Legend:
Assay type in all cases: functional
Thanatephorus cucumeris [1] = experiment: Fungicidal activity against Thanatephorus cucumeris assessed as rice sheath blight disease control at 31.3 ppm foliar application for 24 hr before inoculation at 26 +- 2 measured after 5 days by preventive manner
Thanatephorus cucumeris [2] = experiment: Fungicidal activity against Thanatephorus cucumeris assessed as rice sheath blight disease control at 7.8 ppm foliar application for 24 hr before inoculation at 26 +- 2 measured after 5 days by preventive manner
Thanatephorus cucumeris [3] = experiment: Fungicidal activity against Thanatephorus cucumeris assessed as rice sheath blight disease control at 2 ppm foliar application for 24 hr before inoculation at 26 +- 2 measured after 5 days by preventive manner
[4] = test system: Pseudoperonospora cubensis; experiment: Fungicidal activity against Pseudoperonospora cubensis assessed as cucumber downy mildew disease control at 125 ppm foliar application 24 hr before inoculation on upper surface of leaf by preventive manner
[5] = test system: Pseudoperonospora cubensis; experiment: Fungicidal activity against Pseudoperonospora cubensis assessed as cucumber downy mildew disease control at 31.3 ppm foliar application 24 hr before inoculation on upper surface of leaf by preventive manner
[6] = test system: Pseudoperonospora cubensis; experiment: Fungicidal activity against Pseudoperonospora cubensis assessed as cucumber downy mildew disease control at 7.8 ppm foliar application 24 hr before inoculation on upper surface of leaf by preventive manner
[7] = test system: Pseudoperonospora cubensis; experiment: Fungicidal activity against Pseudoperonospora cubensis assessed as cucumber downy mildew disease control at 2 ppm foliar application 24 hr before inoculation on upper surface of leaf by preventive manner
Podosphaera fuliginea [8] = experiment: Fungicidal activity against Podosphaera fuliginea assessed as cucumber powdery mildew control under greenhouse at 125 ppm foliar application 24 hr before inoculation on upper surface of leaf at 23 +/- 2 degC by preventive manner
Podosphaera fuliginea [9] = experiment: Fungicidal activity against Podosphaera fuliginea assessed as cucumber powdery mildew control under greenhouse at 31.3 ppm foliar application 24 hr before inoculation on upper surface of leaf at 23 +/- 2 degC by preventive manner
Podosphaera fuliginea [10] = experiment: Fungicidal activity against Podosphaera fuliginea assessed as cucumber powdery mildew control under greenhouse at 7.8 ppm foliar application 24 hr before inoculation on upper surface of leaf at 23 +/- 2 degC by preventive manner
Podosphaera fuliginea [11] = experiment: Fungicidal activity against Podosphaera fuliginea assessed as cucumber powdery mildew control under greenhouse at 2 ppm foliar application 24 hr before inoculation on upper surface of leaf at 23 +/- 2 degC by preventive manner
Thanatephorus cucumeris [12] = experiment: Fungicidal activity against Thanatephorus cucumeris assessed as rice sheath blight disease control at 125 ppm foliar application for 24 hr before inoculation at 26 +- 2 measured after 5 days by preventive manner

SMILES	Activity (Thanatephorus cucumeris [1])	Activity (Thanatephorus cucumeris [2])	Activity (Thanatephorus cucumeris [3])	Activity [4]	Activity [5]	Activity [6]	Activity [7]	Activity (Podosphaera fuliginea [8])	Activity (Podosphaera fuliginea [9])	Activity (Podosphaera fuliginea [10])	Activity (Podosphaera fuliginea [11])	Activity (Thanatephorus cucumeris [12])
CNC(=O)/C(=N/OC)c1ccccc1/C=C/c1ccccc1	<70%	<70%	<70%	70%	70%	70%	70%	70%	70%	70%	70%	<70%
CNC(=O)/C(=N/OC)c1ccccc1NCc1ccccc1	<70%	<70%	<70%	<70%	<70%	<70%	<70%	<70%	<70%	<70%	<70%	<70%
CNC(=O)/C(=N/OC)c1cc(OC)ccc1Oc1ccccc1	70%	70%	70%	70%	70%	70%	70%	70%	70%	70%	70%	70%
CNC(=O)/C(=N/OC(C)C)c1ccccc1Oc1ccccc1	<70%	<70%	<70%	<70%	<70%	<70%	<70%	<70%	<70%	<70%	<70%	<70%
CNC(=O)/C(=N/OC)c1ccccc1Sc1ccccc1	70%	70%	70%	70%	70%	70%	70%	70%	70%	70%	70%	70%
CCO/N=C(/C(=O)NC)c1ccccc1Oc1ccccc1	<70%	<70%	<70%	<70%	<70%	<70%	<70%	70%	70%	70%	70%	<70%
CNC(=O)/C(=N/OC)c1cc([N+](=O)[O-])ccc1Oc1ccccc1	<70%	<70%	<70%	<70%	<70%	<70%	<70%	<70%	<70%	<70%	<70%	<70%
CNC(=O)/C(=N/OC)c1ccc(C)cc1Oc1ccccc1	70%	70%	70%	70%	70%	70%	70%	70%	70%	70%	70%	70%
CNC(=O)/C(=N/OC)c1c(OC)cccc1Oc1ccccc1	<70%	<70%	<70%	<70%	<70%	<70%	<70%	<70%	<70%	<70%	<70%	<70%
CO/N=C(/C(N)=O)c1ccccc1Oc1ccccc1	<70%	<70%	<70%	<70%	<70%	<70%	<70%					<70%
CNC(=O)/C(=N/OC)c1ccccc1CCc1ccccc1	<70%	<70%	<70%	<70%	<70%	<70%	<70%	70%	70%	70%	70%	<70%
